In ChEMBL document CHEMBL2029324, “A small molecule regulates hairpin structures in d(CGG) trinucleotide repeats” (Bioorg Med Chem Lett, 2012):
Activity calls are given as the source filed them. The calls are words filed in the database; no cut-off is given here.

Columns and labels:
Type in all cases: nucleic-acid assay
Nucleic Acid [1] = assay: Binding affinity to d(CGG)10 DNA assessed as increase in strong positive peak by CD-UV analysis
Nucleic Acid [2] = assay: Binding affinity to d(CGG)10 DNA assessed as inhibition of Taq polymerase-mediated DNA replication
Nucleic Acid [3] = assay: Binding affinity to d(CCG)10 DNA assessed as increase in melting temperature at 5 to 20 uM
Nucleic Acid [4] = assay: Binding affinity to d(CGG)10 DNA assessed as formation of stable compound-DNA hairpin loop of the template at increasing compound concentration
Nucleic Acid [5] = assay: Binding affinity to d(CGG)10 DNA assessed as inhibition of Taq polymerase at first and fifth part of the (CGG)10 repeat region from 3'-end of the template at 5 uM
Nucleic Acid [6] = assay: Binding affinity to d(CGG)10 DNA assessed as thermal denaturation at 100 degC and 20 uM
Nucleic Acid [7] = assay: Binding affinity to d(CCG)10 DNA assessed as inhibition of Taq polymerase-mediated DNA replication at 20 uM
Nucleic Acid [8] = assay: Binding affinity to d(CCG)10 DNA assessed as hairpin loop formation at 30 uM by PAGE analysis
Nucleic Acid [9] = assay: Binding affinity to d(CGG)10 DNA assessed as increase in positive induced CD at 5 to 20 uM by CD-UV analysis
Nucleic Acid [10] = assay: Binding affinity to d(CGG)10 DNA assessed as decrease in signal intensity by CD-UV analysis
Nucleic Acid [11] = assay: Binding affinity to d(CGG)10 DNA assessed as inhibition of Taq polymerase at first (CGG)10 repeat region from 3'-end of the template at increasing concentration
Nucleic Acid [12] = assay: Binding affinity to d(CGG)10 DNA assessed as hairpin loop formation at 1 to 30 uM by PAGE analysis
Nucleic Acid [13] = assay: Binding affinity to d(CGG)10 DNA assessed as formation of compound-DNA hairpin loop of the template at low compound concentration

- Activity (Nucleic Acid [1]): Dose-dependent effect
- Activity (Nucleic Acid [2]): Dose-dependent effect
- Activity (Nucleic Acid [3]): inactive
- Activity (Nucleic Acid [4]): Active
- Activity (Nucleic Acid [5]): Active
- Activity (Nucleic Acid [6]): inactive
- Activity (Nucleic Acid [7]): inactive
- Activity (Nucleic Acid [8]): inactive
- Activity (Nucleic Acid [9]): Active
- Activity (Nucleic Acid [10]): Dose-dependent effect
- Activity (Nucleic Acid [11]): Active
- Activity (Nucleic Acid [12]): Active
- Activity (Nucleic Acid [13]): Active
Structure (SMILES): Cc1ccc2ccc(NC(=O)OCCCNCCCOC(=O)Nc3ccc4ccc(C)nc4n3)nc2n1
